Source: patent US7829309B1, “Cell culture performance with betaine” (Immunex Corporation, priority 2002, dated 2010)
Entries after “also recorded” stand apart in the source; their conditions may differ.

Experiments:
[1] = tested on: TNFR-Fc producing cells (CHO cell lines); assay: Betaine in 1 L bioreactor cultures of TNFR-Fc producing CHO cells at production osmolality; format: cell-based, Chinese hamster
Method: TNFR-Fc production in some CHO cell lines results in greater quantities of recombinant protein product but with lower viability than other cell lines during the final days of the run. The decreased viability correlates with increased protease activity in the culture supernatant, a result of dying cells releasing proteases into the media, which decreases stability of the final purified product. The current study was performed to determine if betaine could prolong viability at production osmolality (250-280 mOsm initial value).
The bioreactors used for this study were stirred vessels with a 1 liter working volume, with temperature, pH and dO2 control. The medium was serum-free with bicarbonate, IGF-1 (LongR3; GroPep, Australia), intralipids and peptones added. Betaine was added to 1 L bioreactor cultures of TNFR-Fc producing cells at 0, 10, 20, 30, and 40 mM with the osmolality of each culture adjusted to 270 to 280 mOsm with an appropriate amount of NaCl. The reactors were induced to express recombinant protein on day 2 by reducing the temperature and adding butyrate to 0.5 mM. Daily samples were taken for analysis of metabolic and productivity parameters.
The ability of induced cells to produce TNFR:Fc was not decreased in the presence of betaine.

cell cultures = conditions: physiological osmolality, 292 mOsm/kg; cited from earlier work

C[N+](C)(C)CC(=O)O [betaine]
cell viability (viable cells as percentage of living cells over total cells, trypan blue exclusion; VCD profiles) ([1]; betaine 0, 10, 20, 30, 40 mM, serum-free medium, osmolality 270 to 280 mOsm, most noticeable after day 5 (FIG. 1)): increases cell viability; also recorded: positive effect on cell viability | concentration dependence of the viability effect ([1]; betaine 10-40 mM, higher concentrations than 30 mM did not increase viability as much): titration effect up to 30 mM | ability of induced cells to produce TNFR:Fc ([1]; in the presence of betaine, induced on day 2 by reduced temperature and 0.5 mM butyrate): not decreased | increase in percentage of secreted recombinant polypeptide having the desired conformation (native conformation and dimerized) ([1]; in the presence of betaine, measured by hydrophobic interaction chromatography (HIC) against known controls): 17.7% | effect on cell culture growth or maximum viable cell concentration (cell cultures): no effect
